Laboratory results published in patent publication US9932340B2, “Substituted indoles” (AbbVie Inc., priority 2014, dated 2018).

Target: SUV420H1 enzyme (Homo sapiens, UniProt Q4FZB7)
Experiment: TR-FRET SAH SUV420H1 enzyme inhibition assay
Assay type: biochemical
Conditions: Histone Peptide H4(8-30)me1 and SAM, overnight at room temp, TR-FRET detection of SAH, read-out: TR-FRET SAH_SUV420H1 IC50
How it was run: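 SUV420H1 (90 nM) preincubated 30 min with compound (3-fold dilutions, 50 to 0.00075 μM), then H4(8-30)me1 peptide 5 nM and SAM 4 nM added, overnight at room temp. SAH product detected by TR-FRET with Tb anti-SAH antibody and Oregon Green-SAH in RIPA buffer, 4 h; IC50 from Hill fit, asymptotes fixed 0-100%.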

Chain of SUV420H1 enzyme (Q4FZB7 whole entry): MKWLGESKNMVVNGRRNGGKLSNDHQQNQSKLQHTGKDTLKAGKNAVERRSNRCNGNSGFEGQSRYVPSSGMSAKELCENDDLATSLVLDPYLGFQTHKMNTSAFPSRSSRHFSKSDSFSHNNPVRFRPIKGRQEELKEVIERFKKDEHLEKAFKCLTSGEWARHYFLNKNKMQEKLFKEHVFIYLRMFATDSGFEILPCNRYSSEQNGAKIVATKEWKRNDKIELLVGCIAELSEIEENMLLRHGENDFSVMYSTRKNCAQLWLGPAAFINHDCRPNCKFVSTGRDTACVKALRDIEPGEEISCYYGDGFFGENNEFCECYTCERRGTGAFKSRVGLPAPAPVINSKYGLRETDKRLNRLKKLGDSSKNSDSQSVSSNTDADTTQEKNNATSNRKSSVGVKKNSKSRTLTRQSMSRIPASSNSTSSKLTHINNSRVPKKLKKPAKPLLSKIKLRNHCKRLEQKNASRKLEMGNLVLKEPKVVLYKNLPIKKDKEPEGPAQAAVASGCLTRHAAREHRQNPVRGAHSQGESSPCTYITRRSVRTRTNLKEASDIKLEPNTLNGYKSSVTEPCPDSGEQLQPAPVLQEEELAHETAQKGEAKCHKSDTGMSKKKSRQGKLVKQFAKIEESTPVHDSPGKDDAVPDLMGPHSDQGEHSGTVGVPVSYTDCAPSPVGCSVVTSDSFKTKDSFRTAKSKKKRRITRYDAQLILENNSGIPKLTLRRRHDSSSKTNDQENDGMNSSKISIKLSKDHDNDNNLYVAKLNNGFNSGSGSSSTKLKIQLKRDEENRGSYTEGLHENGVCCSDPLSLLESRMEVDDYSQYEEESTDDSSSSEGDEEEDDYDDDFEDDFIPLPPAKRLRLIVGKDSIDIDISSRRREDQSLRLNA

`CC1CCC(C(=O)NCc2cc3cc(Cl)cc(Cn4cnc5c(N)ncnc54)c3[nH]2)CC1` (centres unmarked) [Example 130, N-({7-[(6-amino-9H-purin-9-yl)methyl]-5-chloro-1H-indol-2-yl}methyl)-4-methylcyclohexanecarboxamide] and `Nc1ncnc2c1ncn2Cc1cc(Cl)cc2cc(CNC(=O)[C@@H]3CCCN3)[nH]c12` [Example 115, (2S)—N-({7-[(6-amino-9H-purin-9-yl)methyl]-5-chloro-1H-indol-2-yl}methyl)pyrrolidine-2-carboxamide] are within 1.5-fold of each other in IC50: 2390 nM for the first, 3530 nM for the second.

Compared with `Nc1ncnc2c1ncn2Cc1cc(Cl)cc2cc(CNC(=O)Cc3ccccc3Cl)[nH]c12` [Example 253, N-({7-[(6-amino-9H-purin-9-yl)methyl]-5-chloro-1H-indol-2-yl}methyl)-2-(2-chlorophenyl)acetamide], `Nc1ncnc2c1ncn2Cc1cc(Cl)cc2cc(CNC(=O)Cc3ccccn3)[nH]c12` [Example 230, N-({7-[(6-amino-9H-purin-9-yl)methyl]-5-chloro-1H-indol-2-yl}methyl)-2-(pyridin-2-yl)acetamide] is 2.2-fold lower in IC50: 36100 nM for the first, 16700 nM for the second.

First: CN1CCN(Cc2cccc(-c3cc(Cn4cnc5c(N)ncnc54)c4[nH]c(CN)cc4c3)c2)CC1 [Example 55, 9-{[2-(aminomethyl)-5-{3-[(4-methylpiperazin-1-yl)methyl]phenyl}-1H-indol-7-yl]methyl}-9H-purin-6-amine]
Second: N#Cc1ccc(-c2cc(Cn3cnc4c(N)ncnc43)c3[nH]c(CN)cc3c2)cc1 [Example 38, 4-{2-(aminomethyl)-7-[(6-amino-9H-purin-9-yl)methyl]-1H-indol-5-yl}benzonitrile]
The IC50 of the first is 2.8-fold lower: 293 nM for the first, 810 nM for the second.

`Nc1ncnc2c1ncn2Cc1cc(Cl)cc2cc(CN(CC(=O)O)CC(=O)O)[nH]c12` [Example 101, 2,2′-[({7-[(6-amino-9H-purin-9-yl)methyl]-5-chloro-1H-indol-2-yl}methyl)imino]diacetic acid] and `CC(=O)c1cc2cc(Cl)cc(Cn3cnc4c(N)ncnc43)c2[nH]1` [Example 87, 1-{7-[(6-amino-9H-purin-9-yl)methyl]-5-chloro-1H-indol-2-yl}ethanone] cannot be ordered by IC50: greater than 50000 nM for the first, greater than 50000 nM for the second.

`Cc1cc(C#N)ccc1C(=O)NCc1cc2cc(C3=CCOCC3)cc(Cn3cnc4c(N)ncnc43)c2[nH]1` [Example 304, N-({7-[(6-amino-9H-purin-9-yl)methyl]-5-(3,6-dihydro-2H-pyran-4-yl)-1H-indol-2-yl}methyl)-4-cyano-2-methylbenzamide] and `CC(=O)N1CC=C(c2cc(Cn3cnc4c(N)ncnc43)c3[nH]c(CNC(=O)c4ccc(C#N)cc4F)cc3c2)CC1` [Example 288, N-({5-(1-acetyl-1,2,3,6-tetrahydropyridin-4-yl)-7-[(6-amino-9H-purin-9-yl)methyl]-1H-indol-2-yl}methyl)-4-cyano-2-fluorobenzamide] are within 1.5-fold of each other in IC50: 49.1 nM for the first, 43.1 nM for the second.

First: Nc1ncnc2c1ncn2Cc1cc(Cl)cc2cc(CNCc3cc(F)cc(Cl)c3)[nH]c12 [Example 216, 9-[(5-chloro-2-{[(3-chloro-5-fluorobenzyl)amino]methyl}-1H-indol-7-yl)methyl]-9H-purin-6-amine]
Second: Nc1ncnc2c1ncn2Cc1cc(Cl)cc2cc(CNCc3c(F)cccc3Cl)[nH]c12 [Example 215, 9-[(5-chloro-2-{[(2-chloro-6-fluorobenzyl)amino]methyl}-1H-indol-7-yl)methyl]-9H-purin-6-amine]
The IC50 of the first is 1.6-fold lower: 2470 nM for the first, 3910 nM for the second. The first is the more potent here.

Going from `CCn1nc(C)c(C(=O)NCc2cc3cc(Cl)cc(Cn4cnc5c(N)ncnc54)c3[nH]2)c1C` [Example 188, N-({7-[(6-amino-9H-purin-9-yl)methyl]-5-chloro-1H-indol-2-yl}methyl)-1-ethyl-3,5-dimethyl-1H-pyrazole-4-carboxamide] to `Cc1nc(C)c(C(=O)NCc2cc3cc(Cl)cc(Cn4cnc5c(N)ncnc54)c3[nH]2)s1` [Example 161, N-({7-[(6-amino-9H-purin-9-yl)methyl]-5-chloro-1H-indol-2-yl}methyl)-2,4-dimethyl-1,3-thiazole-5-carboxamide], the IC50 rises from 507 nM to 856 nM (1.7-fold).

`Nc1ncnc2c1ncn2Cc1cc(Cl)cc2cc(CNCc3ccccc3F)[nH]c12` [Example 214, 9-[(5-chloro-2-{[(2-fluorobenzyl)amino]methyl}-1H-indol-7-yl)methyl]-9H-purin-6-amine] and `Nc1ncnc2c1ncn2Cc1cc(Cl)cc2cc(CNC(=O)c3c(F)cccc3F)[nH]c12` [Example 228, N-({7-[(6-amino-9H-purin-9-yl)methyl]-5-chloro-1H-indol-2-yl}methyl)-2,6-difluorobenzamide] are within 1.5-fold of each other in IC50: 2840 nM for the first, 2420 nM for the second.

Going from `Cc1cc(C(=O)NCc2cc3c(Cl)ccc(Cn4cnc5c(N)ncnc54)c3[nH]2)c(C)nn1` [Example 239, N-({7-[(6-amino-9H-purin-9-yl)methyl]-4-chloro-1H-indol-2-yl}methyl)-3,6-dimethylpyridazine-4-carboxamide] to `Cc1nnccc1C(=O)NCc1cc2cc(Cl)cc(Cn3cnc4c(N)ncnc43)c2[nH]1` [Example 199, N-({7-[(6-amino-9H-purin-9-yl)methyl]-5-chloro-1H-indol-2-yl}methyl)-3-methylpyridazine-4-carboxamide], the IC50 rises from 54.7 nM to 93.9 nM (1.7-fold).

Compared with `Nc1ncnc2c1ncn2Cc1cc(Cl)cc2cc(CNC(=O)c3cccs3)[nH]c12` [Example 144, N-({7-[(6-amino-9H-purin-9-yl)methyl]-5-chloro-1H-indol-2-yl}methyl)thiophene-2-carboxamide], `Nc1ncnc2c1ncn2Cc1cc(Cl)cc2cc(CNC(=O)c3cncs3)[nH]c12` [Example 138, N-({7-[(6-amino-9H-purin-9-yl)methyl]-5-chloro-1H-indol-2-yl}methyl)-1,3-thiazole-5-carboxamide] is 2.8-fold lower in IC50: 4600 nM for the first, 1640 nM for the second. The second is the more potent here.

Compared with `Nc1ncnc2c1ncn2Cc1cc(Cl)cc2cc(CN3CCS(=O)(=O)CC3)[nH]c12` [Example 125, 9-({5-chloro-2-[(1,1-dioxidothiomorpholin-4-yl)methyl]-1H-indol-7-yl}methyl)-9H-purin-6-amine], `Nc1ncnc2c1ncn2Cc1cc(Cl)cc2cc(CNC(=O)CC3CCCC3)[nH]c12` [Example 121, N-({7-[(6-amino-9H-purin-9-yl)methyl]-5-chloro-1H-indol-2-yl}methyl)-2-cyclopentylacetamide] is 1.8-fold lower in IC50: 4620 nM for the first, 2560 nM for the second. The second is the more potent here.

First: NCc1cc2cc(C3=CCCC3)cc(Cn3cnc4c(N)ncnc43)c2[nH]1 [Example 11, 9-{[2-(aminomethyl)-5-(cyclopent-1-en-1-yl)-1H-indol-7-yl]methyl}-9H-purin-6-amine]
Second: Cn1cc(-c2ccc(Cn3cnc4c(N)ncnc43)c3[nH]c(CN)cc23)cn1 [Example 68, 9-{[2-(aminomethyl)-4-(1-methyl-1H-pyrazol-4-yl)-1H-indol-7-yl]methyl}-9H-purin-6-amine]
The IC50 of the first is 5.5-fold lower: 178 nM for the first, 972 nM for the second.

Compared with `Nc1ncnc2c1ncn2Cc1cc(Cl)cc2cc(CNC(=O)c3cn[nH]c3)[nH]c12` [Example 143, N-({7-[(6-amino-9H-purin-9-yl)methyl]-5-chloro-1H-indol-2-yl}methyl)-1H-pyrazole-4-carboxamide], `Nc1ncnc2c1ncn2Cc1cc(Cl)cc2cc(CNC(=O)c3cnoc3)[nH]c12` [Example 141, N-({7-[(6-amino-9H-purin-9-yl)methyl]-5-chloro-1H-indol-2-yl}methyl)-1,2-oxazole-4-carboxamide] is 31-fold lower in IC50: 24000 nM for the first, 783 nM for the second.

First: Cc1ncsc1C(=O)NCc1cc2cc(Cl)cc(Cn3cnc4c(N)ncnc43)c2[nH]1 [Example 148, N-({7-[(6-amino-9H-purin-9-yl)methyl]-5-chloro-1H-indol-2-yl}methyl)-4-methyl-1,3-thiazole-5-carboxamide]
Second: Cc1noc2ncc(C(=O)NCc3cc4cc(Cl)cc(Cn5cnc6c(N)ncnc65)c4[nH]3)cc12 [Example 351, N-({7-[(6-amino-9H-purin-9-yl)methyl]-5-chloro-1H-indol-2-yl}methyl)-3-methyl[1,2]oxazolo[5,4-b]pyridine-5-carboxamide]
The IC50 of the first is 2.6-fold higher: 1030 nM for the first, 393 nM for the second. The second is the more potent here.

Compared with `Nc1ncnc2c1ncn2Cc1cc(Cl)cc2cc(CNC(=O)c3cnc4ccoc4c3)[nH]c12` [Example 340, N-({7-[(6-amino-9H-purin-9-yl)methyl]-5-chloro-1H-indol-2-yl}methyl)furo[3,2-b]pyridine-6-carboxamide], `COc1cccc(C(=O)NCc2cc3cc(Cl)cc(Cn4cnc5c(N)ncnc54)c3[nH]2)c1` [Example 259, N-({7-[(6-amino-9H-purin-9-yl)methyl]-5-chloro-1H-indol-2-yl}methyl)-3-methoxybenzamide] is 4.4-fold higher in IC50: 807 nM for the first, 3530 nM for the second.

Going from `CC(C)c1oncc1C(=O)NCc1cc2cc(Cl)cc(Cn3cnc4c(N)ncnc43)c2[nH]1` [Example 187, N-({7-[(6-amino-9H-purin-9-yl)methyl]-5-chloro-1H-indol-2-yl}methyl)-5-(propan-2-yl)-1,2-oxazole-4-carboxamide] to `Cn1ccc2cc(C(=O)NCc3cc4cc(Cl)cc(Cn5cnc6c(N)ncnc65)c4[nH]3)ccc21` [Example 366, N-({7-[(6-amino-9H-purin-9-yl)methyl]-5-chloro-1H-indol-2-yl}methyl)-1-methyl-1H-indole-5-carboxamide], the IC50 rises from 1870 nM to 2870 nM (1.5-fold). The first is the more potent here.

Going from `Cc1nnccc1C(=O)NCc1cc2cc(C3=CCN(S(C)(=O)=O)CC3)cc(Cn3cnc4c(N)ncnc43)c2[nH]1` [Example 202, N-({7-[(6-amino-9H-purin-9-yl)methyl]-5-[1-(methylsulfonyl)-1,2,3,6-tetrahydropyridin-4-yl]-1H-indol-2-yl}methyl)-3-methylpyridazine-4-carboxamide] to `N#Cc1c[nH]c2ccc(C(=O)NCc3cc4cc(Cl)cc(Cn5cnc6c(N)ncnc65)c4[nH]3)cc12` [Example 369, N-({7-[(6-amino-9H-purin-9-yl)methyl]-5-chloro-1H-indol-2-yl}methyl)-3-cyano-1H-indole-5-carboxamide], the IC50 rises from 64.1 nM to greater than 50000 nM.

In the case of `Nc1nc(C2CC2)nc2c1ncn2Cc1cccc2cc[nH]c12` [Example 6, 2-cyclopropyl-9-(1H-indol-7-ylmethyl)-9H-purin-6-amine], the IC50 is reported as 1460 nM.
